We go through 13 compounds from PubChem BioAssay (NCI).

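1) Cells in 96-well plates. 2) Compound, 48 h, 5 concentrations. 3) Linear interpolation between surrounding doses. 4) Unreached endpoint = highest concentration. TGI: concentration producing complete growth inhibition.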 Where a SMILES comes first, the peptide text is derived from it. [ ]: non-standard residue; d: D form. The star is where a group is joined. Cbz = O=C(OCc1ccccc1)*; Aib = CC(C)(N)C(=O)O; OBn = c1ccc(CO*)cc1

Among the test systems are EKVX NSCLC; OVCAR-5 ovarian; RPMI-8226 leukemia; SF-268 CNS; DU-145 prostate; SNB-19 CNS; M14 melanoma; NCI-H460 lung; OVCAR-4 ovarian; U251 CNS.
Holding throughout (assay): growth of human tumour cells (NCI), 48 h

`CC(C)(C)N=C(N)NC#N`: the TGI in the assay with EKVX NSCLC, in the assay on OVCAR-5 ovarian, in the assay on RPMI-8226 leukemia, with SF-268 CNS, in the assay with DU-145 prostate and in the assay on SNB-19 CNS was above 100 µM throughout. The TGI with M14 melanoma, in the assay with NCI-H460 lung, with OVCAR-4 ovarian and in the assay on U251 CNS was above 100 µM each time.
Take `c1ccc(C2=NOC(c3ccccc3)N2C23CC4CC(CC(C4)C2)C3)cc1` (stereo not given): the TGI in the assay with EKVX NSCLC, with OVCAR-5 ovarian, in the assay on RPMI-8226 leukemia, with SF-268 CNS, in the assay with DU-145 prostate and in the assay with SNB-19 CNS was above 10 µM each time. The TGI in the assay with M14 melanoma, with NCI-H460 lung, in the assay on OVCAR-4 ovarian and in the assay on U251 CNS was above 10 µM throughout.
Take `COc1cc(O)c2c(=O)c(OC)c(-c3ccc(OC)c(O)c3)oc2c1`: the TGI in the assay on EKVX NSCLC, with OVCAR-5 ovarian, in the assay on RPMI-8226 leukemia, in the assay on SF-268 CNS, with DU-145 prostate and in the assay on SNB-19 CNS was above 100 µM each time. For the same compound, the TGI in the assay with M14 melanoma, in the assay with NCI-H460 lung, in the assay with OVCAR-4 ovarian and with U251 CNS was above 100 µM in each case.
Take `Cc1c2c(c(C)n1-c1ccccc1)C(=O)N(CCN1CCN(c3cccc(C(F)(F)F)c3)CC1)C2=O`: the TGI in the assay on EKVX NSCLC, in the assay on OVCAR-5 ovarian, in the assay on RPMI-8226 leukemia, with SF-268 CNS, in the assay with DU-145 prostate and in the assay with SNB-19 CNS was above 100 µM each time. The TGI in the assay on M14 melanoma, in the assay on NCI-H460 lung, with OVCAR-4 ovarian and in the assay with U251 CNS was above 100 µM in each case.
As to `COc1cc(C=O)ccc1O`, the TGI in the assay with EKVX NSCLC, in the assay with OVCAR-5 ovarian, in the assay with RPMI-8226 leukemia, in the assay on SF-268 CNS, in the assay with DU-145 prostate and in the assay with SNB-19 CNS was above 100 µM each time. For the same compound, the TGI in the assay on M14 melanoma, with NCI-H460 lung, in the assay on OVCAR-4 ovarian and in the assay on U251 CNS was above 100 µM in each case.
In the case of `CCOC(=O)C(NC(=O)CC)(N1CCN(c2cc3c(cc2F)c(=O)c(C(=O)O)cn3C2CC2)CC1)C(F)(F)F` (stereo not given), the TGI in the assay on EKVX NSCLC, with OVCAR-5 ovarian, in the assay with RPMI-8226 leukemia, in the assay with SF-268 CNS, with DU-145 prostate and in the assay with SNB-19 CNS was above 100 µM in each case. Further, the TGI with M14 melanoma, in the assay on NCI-H460 lung, in the assay on OVCAR-4 ovarian and with U251 CNS was above 100 µM in each case.
As for `C[C@@H]1CCC2[C@@H](C)[C@@H](O[C@H]3O[C@@H]4O[C@@]5(C)CCC6[C@H](C)CCC([C@H]3C)[C@]64OO5)O[C@@H]3O[C@@]4(C)CCC1[C@@]23OO4` (stereo not given in full), the TGI in the assay with EKVX NSCLC was above 25 µM; in the assay on OVCAR-5 ovarian, above 25 µM; in the assay on RPMI-8226 leukemia, above 7.26 µM; with SF-268 CNS it was above 25 µM; in the assay on DU-145 prostate, above 25 µM; in the assay with SNB-19 CNS, above 25 µM. Also, the TGI in the assay with M14 melanoma, in the assay on NCI-H460 lung, in the assay on OVCAR-4 ovarian and in the assay with U251 CNS was above 25 µM throughout.
On to `CC(NC(=O)C(C)(C)NC(=O)C(CC(=O)OCc1ccccc1)NC(=O)OCc1ccccc1)C(N)=O` (stereo not given) (Cbz-Asp(OBn)-[Aib]-Ala-NH2; configuration not given here), for which the TGI in the assay with EKVX NSCLC, in the assay with OVCAR-5 ovarian, in the assay on RPMI-8226 leukemia, in the assay on SF-268 CNS, with DU-145 prostate and in the assay with SNB-19 CNS was above 100 µM in each case. Further, the TGI in the assay on M14 melanoma, with NCI-H460 lung, in the assay on OVCAR-4 ovarian and in the assay on U251 CNS was above 100 µM each time.
Regarding `CC(C)(C)c1ccc2c(c1)C#Cc1cc3c(cc1OCCCO2)C#Cc1cc(C(C)(C)C)ccc1OCCCO3`, the TGI with EKVX NSCLC, with OVCAR-5 ovarian, with RPMI-8226 leukemia, in the assay with SF-268 CNS, in the assay with DU-145 prostate and in the assay on SNB-19 CNS was above 100 µM each time. Moreover, the TGI in the assay on M14 melanoma, with NCI-H460 lung, in the assay on OVCAR-4 ovarian and in the assay with U251 CNS was above 100 µM throughout.
Turning to `Nc1ncc2c(n1)-c1ccccc1OC2N1CCCC1` (stereo not given), the TGI in the assay on EKVX NSCLC, in the assay on OVCAR-5 ovarian, with RPMI-8226 leukemia, in the assay on SF-268 CNS, in the assay with DU-145 prostate and in the assay with SNB-19 CNS was above 100 µM throughout. Further, the TGI in the assay with M14 melanoma, with NCI-H460 lung, with OVCAR-4 ovarian and in the assay with U251 CNS was above 100 µM in each case.
On to `CN1CC[C@]2(c3cccc(O)c3)CC(=O)/C(=C/c3ccccc3)[C@@H]1C2`, for which the TGI was determined as 20.2 µM with EKVX NSCLC; 29.7 µM in the assay with OVCAR-5 ovarian; 4.84 µM with RPMI-8226 leukemia; 10.4 µM with SF-268 CNS; 17.5 µM in the assay with DU-145 prostate; 18.2 µM with SNB-19 CNS. Besides, the TGI in the assay on M14 melanoma was 12.1 µM; in the assay on NCI-H460 lung, 7.23 µM; in the assay on OVCAR-4 ovarian it was 16.9 µM; with U251 CNS, 8.36 µM.
`CC(C)Oc1cccc(N2C(=NCc3c[nH]c4ccccc34)Nc3ccncc3S2(=O)=O)c1`: the TGI in the assay with EKVX NSCLC is 79 µM; with OVCAR-5 ovarian, above 100 µM; in the assay with RPMI-8226 leukemia, 30 µM; with SF-268 CNS, above 100 µM; with DU-145 prostate, above 100 µM; with SNB-19 CNS it was above 100 µM. Besides, the TGI in the assay on M14 melanoma was 62.6 µM; in the assay with NCI-H460 lung, 77.6 µM; with OVCAR-4 ovarian, above 100 µM; with U251 CNS, above 100 µM.
Regarding `Clc1ccc(C=NC23CC4CC(CC(C4)C2)C3)c(Cl)c1`, the TGI with EKVX NSCLC, in the assay with OVCAR-5 ovarian, in the assay with RPMI-8226 leukemia, with SF-268 CNS, in the assay with DU-145 prostate and with SNB-19 CNS was above 10 µM throughout. Moreover, the TGI in the assay with M14 melanoma, with NCI-H460 lung, in the assay on OVCAR-4 ovarian and in the assay on U251 CNS was above 10 µM throughout.
